Laboratory results published in ChEMBL document CHEMBL3421539, “A novel cell-permeable, selective, and noncompetitive inhibitor of KAT3 histone acetyltransferases from a combined molecular pruning/classical isosterism approach” (J Med Chem, 2015).
Calls of active or inactive are those of the source. The rule behind the calls is not given here.

Key:
[1] = biological target: T1, Histone acetyltransferase KAT2B (Homo sapiens, UniProt Q92831); test: Inhibition of PCAF (unknown origin) using histone H3/[acetyl-3H]-acetyl coenzyme A as substrate at 100 uM
Target sequence in this assay (Q92831 whole entry, looked up): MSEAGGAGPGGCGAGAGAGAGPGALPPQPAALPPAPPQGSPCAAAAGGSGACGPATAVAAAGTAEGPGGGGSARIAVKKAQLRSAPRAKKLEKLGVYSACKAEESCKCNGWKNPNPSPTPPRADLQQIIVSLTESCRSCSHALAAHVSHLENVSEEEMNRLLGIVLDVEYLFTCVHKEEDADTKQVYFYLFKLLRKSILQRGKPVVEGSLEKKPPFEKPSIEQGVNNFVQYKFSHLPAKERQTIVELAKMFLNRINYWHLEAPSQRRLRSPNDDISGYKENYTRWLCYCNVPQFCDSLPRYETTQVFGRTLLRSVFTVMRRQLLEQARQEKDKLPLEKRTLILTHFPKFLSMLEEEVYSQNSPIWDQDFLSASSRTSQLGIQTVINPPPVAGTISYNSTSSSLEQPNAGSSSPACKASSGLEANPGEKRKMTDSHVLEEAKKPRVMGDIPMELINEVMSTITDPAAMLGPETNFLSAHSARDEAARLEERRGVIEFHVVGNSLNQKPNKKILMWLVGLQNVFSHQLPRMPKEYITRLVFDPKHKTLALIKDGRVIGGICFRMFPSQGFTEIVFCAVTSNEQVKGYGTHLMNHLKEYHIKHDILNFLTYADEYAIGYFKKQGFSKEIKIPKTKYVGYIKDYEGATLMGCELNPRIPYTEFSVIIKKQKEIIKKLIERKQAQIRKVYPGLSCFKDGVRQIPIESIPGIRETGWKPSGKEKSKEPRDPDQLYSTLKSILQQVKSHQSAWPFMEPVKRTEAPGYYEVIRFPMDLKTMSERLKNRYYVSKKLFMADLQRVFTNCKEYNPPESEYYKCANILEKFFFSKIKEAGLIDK

[2] = biological target: T2, Histone acetyltransferase p300 (Homo sapiens, UniProt Q09472); test: Inhibition of P300 (unknown origin) using histone H3/[acetyl-3H]-acetyl coenzyme A as substrate at 100 uM
[3] = Stability of the compound in aqueous medium assessed as hydrolysis after 10 mins to 24 hrs by HPLC analysis; assay type: physicochemical; conditions: buffer
[4] = Stability of the compound in organic solvent assessed as hydrolysis after 10 mins to 24 hrs by HPLC analysis; assay type: physicochemical
[5] = Stability of the compound in aqueous medium assessed as hydrolysis after 30 mins by HPLC analysis; assay type: physicochemical; conditions: buffer, 0.5 h
[6] = biological target: T2, Histone acetyltransferase p300; test: Inhibition of P300 (unknown origin) using histone H3/[acetyl-3H]-acetyl coenzyme A as substrate
[7] = biological target: T1, Histone acetyltransferase KAT2B; test: Inhibition of PCAF (unknown origin) using histone H3/[acetyl-3H]-acetyl coenzyme A as substrate
Target sequence in this assay (Q92831 whole entry): as the sequence (Q92831 whole entry, looked up) above

[8] = biological target: T1, Histone acetyltransferase KAT2B; test: Inhibition of PCAF (unknown origin) using histone H3/[acetyl-3H]-acetyl coenzyme A as substrate at 10 uM
Target sequence in this assay (Q92831 whole entry, looked up): as above

[9] = Apparent permeability of the compound at RT after 24 hrs by PAMPA; assay type: physicochemical
[10] = biological target: T2, Histone acetyltransferase p300; test: Inhibition of P300 in […] at 30 uM up to 40 mins by Histac FRET analysis; assay type: cell-based; conditions: COS-7
[11] = biological target: T2, Histone acetyltransferase p300; test: Noncompetitive inhibition of P300 (unknown origin) using acetyl CoA as substrate after 15 mins by double reciprocal plot analysis
[12] = biological target: CREB-binding protein (Homo sapiens, UniProt Q92793); test: Inhibition of recombinant CBP (unknown origin)
[13] = biological target: T2, Histone acetyltransferase p300; test: Noncompetitive inhibition of P300 (unknown origin) using biotinylated H3 as substrate after 15 mins by double reciprocal plot analysis
[14] = biological target: Histone acetyltransferase KAT2A (Homo sapiens) (UniProt Q92830); test: Inhibition of recombinant GCN5 (unknown origin)
[15] = Induction of beta-mercaptoethanol adduct formation in PBS after 30 mins to 24 hrs by HPLC analysis
[16] = biological target: T2, Histone acetyltransferase p300; test: Inhibition of P300 in human U937 cells assessed as reduction in H3K9 histone acetylation at 100 uM by immunoblotting analysis; assay type: cell-based; conditions: U-937, TDE = time-dependent effect
[17] = biological target: T2, Histone acetyltransferase p300; test: Inhibition of P300 in human U937 cells assessed as reduction in H4K5 histone acetylation at 100 uM by immunoblotting analysis; assay type: cell-based; conditions: U-937, TDE = time-dependent effect
[18] = Cytotoxicity against human U937 cells assessed as cell viability at 10 to 100 uM after 24 hrs by MTT assay; assay type: cell-based; conditions: u-937, 24 h
[19] = biological target: T2, Histone acetyltransferase p300; test: Inhibition of recombinant P300 (unknown origin)
[20] = Cell cycle arrest in human U937 cells assessed as accumulation at G0/G1 phase at 100 uM after 72 hrs by propidium iodide staining-based FACS analysis; assay type: functional; conditions: U-937
[21] = biological target: T1, Histone acetyltransferase KAT2B; test: Inhibition of recombinant PCAF (unknown origin)
Target sequence in this assay (Q92831 whole entry, looked up): as above

[22] = Cell cycle arrest in human U937 cells assessed as increase in hypodiploid nuclei level at 100 uM after 72 hrs by Nicoletti method; assay type: functional, cell-based; conditions: U-937
[23] = Stability of the compound in PBS at 25 degC after 2 mins to 24 hrs by HPLC analysis; assay type: physicochemical; conditions: buffer
[24] = biological target: T2, Histone acetyltransferase p300; test: Reversible inhibition of P300 (unknown origin)
[25] = biological target: T2, Histone acetyltransferase p300; test: Binding affinity to human recombinant P300 catalytic domain by SPR analysis
[26] = biological target: T2, Histone acetyltransferase p300; conditions: 10 uM
Description: Inhibition of P300 (unknown origin) using histone H3/[acetyl-3H]-acetyl coenzyme A as substrate at 10 uM

T2 sequence (Q09472 whole entry): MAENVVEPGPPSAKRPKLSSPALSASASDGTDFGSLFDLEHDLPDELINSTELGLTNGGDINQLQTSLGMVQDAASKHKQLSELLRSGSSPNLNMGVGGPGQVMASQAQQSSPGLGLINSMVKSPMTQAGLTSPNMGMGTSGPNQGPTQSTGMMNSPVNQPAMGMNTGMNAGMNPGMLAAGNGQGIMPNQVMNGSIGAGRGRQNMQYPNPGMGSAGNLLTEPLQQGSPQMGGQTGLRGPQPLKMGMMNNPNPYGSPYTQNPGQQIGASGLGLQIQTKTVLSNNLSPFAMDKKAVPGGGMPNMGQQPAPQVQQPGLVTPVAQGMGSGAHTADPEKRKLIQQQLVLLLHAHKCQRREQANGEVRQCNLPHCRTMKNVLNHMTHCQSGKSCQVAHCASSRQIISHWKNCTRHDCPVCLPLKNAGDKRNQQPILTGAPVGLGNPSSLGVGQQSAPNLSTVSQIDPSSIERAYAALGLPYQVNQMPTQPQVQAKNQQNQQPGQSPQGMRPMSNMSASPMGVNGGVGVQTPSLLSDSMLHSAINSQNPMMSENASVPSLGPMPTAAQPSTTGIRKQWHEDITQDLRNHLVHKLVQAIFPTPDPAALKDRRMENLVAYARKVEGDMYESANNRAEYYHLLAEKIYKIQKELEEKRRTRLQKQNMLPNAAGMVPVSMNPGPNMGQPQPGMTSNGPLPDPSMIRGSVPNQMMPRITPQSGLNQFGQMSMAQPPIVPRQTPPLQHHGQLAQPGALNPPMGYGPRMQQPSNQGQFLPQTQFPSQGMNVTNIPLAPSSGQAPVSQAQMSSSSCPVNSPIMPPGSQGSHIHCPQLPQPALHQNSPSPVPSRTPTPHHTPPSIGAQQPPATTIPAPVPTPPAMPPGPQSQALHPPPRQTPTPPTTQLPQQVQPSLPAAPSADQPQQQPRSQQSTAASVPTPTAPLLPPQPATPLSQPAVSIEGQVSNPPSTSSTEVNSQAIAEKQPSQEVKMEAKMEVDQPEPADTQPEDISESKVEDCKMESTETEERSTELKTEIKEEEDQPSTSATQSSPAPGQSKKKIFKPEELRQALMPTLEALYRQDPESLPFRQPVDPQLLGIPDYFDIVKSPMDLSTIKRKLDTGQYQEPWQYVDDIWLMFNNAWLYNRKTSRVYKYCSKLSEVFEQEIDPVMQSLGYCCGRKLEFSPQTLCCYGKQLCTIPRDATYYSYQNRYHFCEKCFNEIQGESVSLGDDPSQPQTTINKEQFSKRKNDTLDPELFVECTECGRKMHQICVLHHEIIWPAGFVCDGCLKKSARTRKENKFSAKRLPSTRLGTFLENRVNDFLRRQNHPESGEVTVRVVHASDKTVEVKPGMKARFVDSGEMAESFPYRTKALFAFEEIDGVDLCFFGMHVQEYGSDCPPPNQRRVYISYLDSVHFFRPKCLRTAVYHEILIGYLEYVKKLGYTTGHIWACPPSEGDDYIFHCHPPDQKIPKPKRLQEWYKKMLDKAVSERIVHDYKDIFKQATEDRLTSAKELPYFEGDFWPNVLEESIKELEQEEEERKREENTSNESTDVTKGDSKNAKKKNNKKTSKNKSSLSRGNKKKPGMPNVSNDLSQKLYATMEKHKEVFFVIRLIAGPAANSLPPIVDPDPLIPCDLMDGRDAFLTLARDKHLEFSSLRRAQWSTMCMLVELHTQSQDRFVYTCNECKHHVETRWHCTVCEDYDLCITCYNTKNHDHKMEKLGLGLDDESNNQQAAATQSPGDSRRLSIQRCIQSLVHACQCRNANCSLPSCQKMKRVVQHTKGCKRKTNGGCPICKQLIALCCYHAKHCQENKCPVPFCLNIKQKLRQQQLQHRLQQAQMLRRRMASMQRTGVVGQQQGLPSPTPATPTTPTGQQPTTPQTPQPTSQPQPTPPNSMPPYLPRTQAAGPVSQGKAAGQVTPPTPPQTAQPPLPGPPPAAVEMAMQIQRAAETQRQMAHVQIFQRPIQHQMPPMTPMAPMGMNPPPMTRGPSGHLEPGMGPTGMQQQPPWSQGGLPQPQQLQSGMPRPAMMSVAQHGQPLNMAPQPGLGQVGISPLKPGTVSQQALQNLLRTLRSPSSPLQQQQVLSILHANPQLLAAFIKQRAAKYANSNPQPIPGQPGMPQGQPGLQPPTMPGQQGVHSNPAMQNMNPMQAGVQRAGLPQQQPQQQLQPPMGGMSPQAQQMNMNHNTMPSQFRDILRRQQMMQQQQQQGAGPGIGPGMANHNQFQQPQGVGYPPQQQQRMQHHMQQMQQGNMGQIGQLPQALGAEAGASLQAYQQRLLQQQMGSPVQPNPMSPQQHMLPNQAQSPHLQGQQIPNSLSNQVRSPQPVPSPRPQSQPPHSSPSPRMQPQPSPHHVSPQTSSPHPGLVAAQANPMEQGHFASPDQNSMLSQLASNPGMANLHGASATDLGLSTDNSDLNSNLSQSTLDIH
Chain of Histone acetyltransferase KAT2A (Homo sapiens) (Q92830 2-837 limits assumed): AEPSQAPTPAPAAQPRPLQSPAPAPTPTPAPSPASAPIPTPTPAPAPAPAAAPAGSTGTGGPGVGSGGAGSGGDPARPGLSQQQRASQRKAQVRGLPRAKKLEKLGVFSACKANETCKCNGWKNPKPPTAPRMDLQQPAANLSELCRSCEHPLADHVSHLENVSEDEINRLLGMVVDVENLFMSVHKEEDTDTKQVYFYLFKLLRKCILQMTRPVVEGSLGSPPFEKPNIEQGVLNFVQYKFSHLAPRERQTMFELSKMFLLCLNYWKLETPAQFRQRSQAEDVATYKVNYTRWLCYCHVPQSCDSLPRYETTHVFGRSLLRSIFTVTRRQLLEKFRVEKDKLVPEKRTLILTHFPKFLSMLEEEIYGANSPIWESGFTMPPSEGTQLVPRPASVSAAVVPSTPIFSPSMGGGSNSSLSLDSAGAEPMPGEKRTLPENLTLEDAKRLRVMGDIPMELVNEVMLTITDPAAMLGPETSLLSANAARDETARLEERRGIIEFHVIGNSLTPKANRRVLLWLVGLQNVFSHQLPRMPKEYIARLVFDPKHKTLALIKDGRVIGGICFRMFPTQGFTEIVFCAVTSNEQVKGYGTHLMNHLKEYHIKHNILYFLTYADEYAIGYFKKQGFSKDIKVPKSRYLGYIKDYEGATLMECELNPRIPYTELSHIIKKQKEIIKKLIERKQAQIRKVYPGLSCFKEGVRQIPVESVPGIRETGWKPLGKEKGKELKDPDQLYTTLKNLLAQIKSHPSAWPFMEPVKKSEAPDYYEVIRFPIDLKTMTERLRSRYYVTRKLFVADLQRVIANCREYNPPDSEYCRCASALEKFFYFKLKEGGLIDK

| Compound | inhibition [1] | inhibition [2] | Stability [3] | Stability [4] | other results |
| --- | --- | --- | --- | --- | --- |
| C=CCN1C(=O)C(=Cc2ccc(O)c(O)c2)C(=O)N(CC=C)C1=O | 3.3% | 61.6% | Unstable | Stable | – |
| COc1cc(C=C2C(=O)N(Cc3ccccc3)C(=O)N(Cc3ccccc3)C2=O)ccc1O | – | 97.1% | Unstable | Stable | Stability [5]: Unstable; IC50 [6]: 1.5 µM |
| C=CCN1C(=O)C(=Cc2ccccc2)C(=O)N(CC=C)C1=O | – | – | Unstable | Stable | – |
| O=C(c1ccc(O)c(O)c1)C1C(=O)N(Cc2ccccc2)C(=O)N(Cc2ccccc2)C1=O | – | 48.2% | – | – | – |
| C=CCN1C(=O)C(=Cc2ccc(OC)c(O)c2)C(=O)N(CC=C)C1=O | 3% | 49.5% | Unstable | Stable | – |
| C=CCN1C(=O)C(=Cc2ccc(OC)cc2)C(=O)N(CC=C)C1=O | 11.7% | 59.9% | Unstable | Stable | – |
| CCCCCCCCCCCCCCCc1cccc(O)c1C(=O)O [ANACARDIC ACID] | 3.6% | – | – | – | IC50 [7]: 33.9 µM; inhibition [8]: < 10% |
| C=CCN1C(=O)C(C(=O)c2ccc(O)cc2)C(=O)N(CC=C)C1=O | -2.7% | 19.1% | – | – | – |
| COc1ccc(C=C2C(=O)N(CC(C)C)C(=O)N(CC(C)C)C2=O)cc1 | 3.6% | 53.8% | Unstable | Stable | – |
| CC(C)CN1C(=O)C(Cc2ccccc2)C(=O)N(CC(C)C)C1=O | – | 23.1% | – | – | – |
| CC(C)NCC(O)COc1cccc2ccccc12 (stereo not given) [PROPRANOLOL] | – | – | – | – | Papp at 24 h [9]: 4.1 ×10⁻⁶ cm/s |
| O=C1C(=Cc2ccc(O)cc2)C(=O)N(Cc2ccccc2)C(=O)N1Cc1ccccc1 | -0.6% | 99.2% | Unstable | Stable | Stability [5]: Unstable; IC50 [6]: 2.1 µM; inhibition [10]: Active |
| CC(C)CN1C(=O)C(C(=O)c2ccccc2)C(=O)N(CC(C)C)C1=O | – | 34.1% | – | – | – |
| CC(C)CN1C(=O)C(=Cc2ccc(O)cc2)C(=O)N(CC(C)C)C1=O | – | 94% | Unstable | Stable | IC50 [6]: 8.5 µM |
| COc1ccc(C=C2C(=O)N(Cc3ccccc3)C(=O)N(Cc3ccccc3)C2=O)cc1OC | – | 88.2% | Unstable | Stable | IC50 [6]: 11.4 µM |
| C=CCN1C(=O)C(=Cc2ccc(O)c(OC)c2)C(=O)N(CC=C)C1=O | 5.1% | 67.3% | Unstable | Stable | IC50 [6]: 26.4 µM |
| CC(C)CN1C(=O)C(Cc2ccc(O)cc2)C(=O)N(CC(C)C)C1=O | 5% | 64.6% | – | – | – |
| O=C1C(=Cc2ccc(O)c(O)c2)C(=O)N(Cc2ccccc2)C(=O)N1Cc1ccccc1 | -2.3% | 96.2% | Unstable | Stable | Stability [5]: Unstable; IC50 [6]: 1.6 µM |
| C=CCN1C(=O)C(C(=O)c2ccc(O)c(O)c2)C(=O)N(CC=C)C1=O | 3.6% | 4.9% | – | – | – |
| COc1cc(C=C2C(=O)N(CC(C)C)C(=O)N(CC(C)C)C2=O)ccc1O | 9.3% | 96.4% | Unstable | Stable | IC50 [6]: 4.2 µM |
| COc1ccc(C=C2C(=O)N(Cc3ccccc3)C(=O)N(Cc3ccccc3)C2=O)cc1 | -8.2% | 93.6% | Unstable | Stable | IC50 [6]: 8 µM |
| COc1ccc(C=C2C(=O)N(CC(C)C)C(=O)N(CC(C)C)C2=O)cc1OC | 9.2% | 45.8% | Unstable | Stable | – |

| Compound | inhibition [1] | inhibition [2] | Stability [3] | Stability [4] | other results |
| --- | --- | --- | --- | --- | --- |
| O=C(c1ccc(O)cc1)C1C(=O)N(Cc2ccccc2)C(=O)N(Cc2ccccc2)C1=O | – | 54.4% | – | – | – |
| C=CCN1C(=O)C(Cc2ccc(O)c(O)c2)C(=O)N(CC=C)C1=O | – | 1.1% | – | – | – |
| CC(C)CN1C(=O)C(=Cc2ccccc2)C(=O)N(CC(C)C)C1=O | – | – | Unstable | Stable | – |
| O=C1C(Cc2ccc(O)c(O)c2)C(=O)N(Cc2ccccc2)C(=O)N1Cc1ccccc1 | – | 59.9% | – | – | – |
| C=CCN1C(=O)C(=Cc2ccc(OC)c(OC)c2)C(=O)N(CC=C)C1=O | 6.6% | 31.1% | Unstable | Stable | – |
| COc1ccc(C=C2C(=O)N(Cc3ccccc3)C(=O)N(Cc3ccccc3)C2=O)cc1O | – | 97.3% | Unstable | Stable | Stability [5]: Unstable; IC50 [6]: 5.9 µM |
| C=CCN1C(=O)C(Cc2ccc(O)cc2)C(=O)N(CC=C)C1=O | -7.5% | 23.7% | – | – | – |
| C=CCN1C(=O)C(=Cc2ccc(O)cc2)C(=O)N(CC=C)C1=O | 3.1% | 64.7% | Unstable | Stable | – |
| CC(C)CN1C(=O)C(Cc2ccc(O)c(O)c2)C(=O)N(CC(C)C)C1=O | – | 24.3% | – | – | – |
| CC(C)CN1C(=O)C(C(=O)c2ccc(O)c(O)c2)C(=O)N(CC(C)C)C1=O | 3.4% | 8.4% | – | – | – |
| O=C1C(=Cc2ccccc2)C(=O)N(Cc2ccccc2)C(=O)N1Cc1ccccc1 | – | – | Unstable | Stable | – |
| Cc1cc(O)cc(C)c1C=C1C(=O)N(Cc2ccccc2)C(=O)N(Cc2ccccc2)C1=O | – | – | – | – | Ki [11]: 2000 nM; alphaKi [11]: 5.7 µM; IC50 [12]: 1100 nM; Ki [13]: 9.4 µM; alphaKi [13]: 6.8 µM; inhibition [14]: inactive; Activity [15]: inactive; inhibition [16]: tde; inhibition [17]: tde; Activity [18]: Non-toxic; IC50 [19]: 2900 nM; Activity [20]: Active; Papp at 24 h [9]: 1.9 ×10⁻⁶ cm/s; inhibition [21]: inactive; Activity [22]: Active; Stability [23]: Stable; inhibition [24]: Active |
| O=C(c1ccccc1)C1C(=O)N(Cc2ccccc2)C(=O)N(Cc2ccccc2)C1=O | – | 84.8% | – | – | Kd [25]: 2400 nM; Stability [23]: Stable |
| CC(C)CN1C(=O)C(=Cc2ccc(O)c(O)c2)C(=O)N(CC(C)C)C1=O | – | 91.8% | Unstable | Stable | IC50 [6]: 5.4 µM |
| COc1ccc(C=C2C(=O)N(CC(C)C)C(=O)N(CC(C)C)C2=O)cc1O | 10.6% | 84.7% | Unstable | Stable | IC50 [6]: 31.4 µM |
| C=CCN1C(=O)C(Cc2ccccc2)C(=O)N(CC=C)C1=O | – | 28.9% | – | – | – |
| O=C1C(Cc2ccc(O)cc2)C(=O)N(Cc2ccccc2)C(=O)N1Cc1ccccc1 | – | 60.3% | – | – | – |
| CC(C)CN1C(=O)C(C(=O)c2ccc(O)cc2)C(=O)N(CC(C)C)C1=O | 19.3% | 39.7% | – | – | – |
| CC1=NN(c2ccc(C(=O)O)cc2)C(=O)/C1=C\Cc1ccc(Cc2cc(C)c(C)cc2[N+](=O)[O-])o1 | – | – | – | – | inhibition [26]: 86%; IC50 [6]: 1.6 µM |
| C=CCN1C(=O)C(C(=O)c2ccccc2)C(=O)N(CC=C)C1=O | – | 28.1% | – | – | – |
| O=C1C(Cc2ccccc2)C(=O)N(Cc2ccccc2)C(=O)N1Cc1ccccc1 | – | 83.9% | – | – | Kd [25]: 110 nM; Stability [23]: Stable |
